According to PubChem BioAssay (NCI):
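Tested at 5 concentrations; 48 h exposure; 96-well plates; endpoints linearly interpolated, else capped at highest concentration. GI50: concentration for 50% inhibition of growth. TGI: total growth inhibition.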

Key:
Experiment in all cases: NCI anticancer screen, dose series, 48 h
HL-60(TB) leukemia = test system: HL-60(TB) leukemia
SK-MEL-28 melanoma = test system: SK-MEL-28 melanoma
MDA-N = test system: MDA-N
SF-539 CNS = test system: SF-539 CNS
NCI-H460 lung = test system: NCI-H460 lung
MOLT-4 leukemia = test system: MOLT-4 leukemia
NCI-H226 lung = test system: NCI-H226 lung
OVCAR-5 ovarian = test system: OVCAR-5 ovarian
LOX IMVI melanoma = test system: LOX IMVI melanoma
SK-MEL-5 melanoma = test system: SK-MEL-5 melanoma
A549 NSCLC = test system: A549 NSCLC
OVCAR-3 ovarian = test system: OVCAR-3 ovarian
ACHN renal = test system: ACHN renal
HT29 colon = test system: HT29 colon
MCF7 breast = test system: MCF7 breast
DU-145 prostate = test system: DU-145 prostate
SNB-19 CNS = test system: SNB-19 CNS
NCI-H522 lung = test system: NCI-H522 lung
U251 CNS = test system: U251 CNS
CCRF-CEM leukemia = test system: CCRF-CEM leukemia
SN12C renal = test system: SN12C renal
RXF 393 renal = test system: RXF 393 renal
A498 renal = test system: A498 renal
OVCAR-4 ovarian = test system: OVCAR-4 ovarian
T-47D breast = test system: T-47D breast
IGROV1 ovarian = test system: IGROV1 ovarian
SK-MEL-2 melanoma = test system: SK-MEL-2 melanoma
SK-OV-3 ovarian = test system: SK-OV-3 ovarian
CAKI-1 renal = test system: CAKI-1 renal
RPMI-8226 leukemia = test system: RPMI-8226 leukemia
NCI-H23 lung = test system: NCI-H23 lung
COLO 205 colon = test system: COLO 205 colon
SNB-75 CNS = test system: SNB-75 CNS
HCT-15 colon = test system: HCT-15 colon
UO-31 renal = test system: UO-31 renal
HOP-62 NSCLC = test system: HOP-62 NSCLC
MDA-MB-435 = test system: MDA-MB-435
KM12 colon = test system: KM12 colon
SR leukemia = test system: SR leukemia
SF-268 CNS = test system: SF-268 CNS
K-562 leukemia = test system: K-562 leukemia
TK-10 renal = test system: TK-10 renal
MDA-MB-231 breast = test system: MDA-MB-231 breast
HCC-2998 colon = test system: HCC-2998 colon
EKVX NSCLC = test system: EKVX NSCLC
NCI/ADR-RES ovarian = test system: NCI/ADR-RES ovarian
OVCAR-8 ovarian = test system: OVCAR-8 ovarian
UACC-62 melanoma = test system: UACC-62 melanoma
SW-620 colon = test system: SW-620 colon
HS 578T breast = test system: HS 578T breast
PC-3 prostate = test system: PC-3 prostate
MALME-3M melanoma = test system: MALME-3M melanoma
HCT-116 colon = test system: HCT-116 colon
M14 melanoma = test system: M14 melanoma
SF-295 CNS = test system: SF-295 CNS

Question: Which results are given for `Nc1ccccc1.[C-]#[O+].[C-]#[O+].[C-]#[O+].[C-]#[O+].[C-]#[O+].[Cr]`?
Answer: GI50 (HL-60(TB) leukemia): 1680 nM; TGI (HL-60(TB) leukemia): 6.94 µM; GI50 (SK-MEL-28 melanoma): 4.52 µM; TGI (SK-MEL-28 melanoma): > 10 µM; GI50 (MDA-N): 3.53 µM; TGI (MDA-N): > 10 µM; GI50 (SF-539 CNS): 3.28 µM; TGI (SF-539 CNS): > 10 µM; GI50 (NCI-H460 lung): 5.64 µM; TGI (NCI-H460 lung): > 10 µM; GI50 (MOLT-4 leukemia): 3.26 µM; TGI (MOLT-4 leukemia): > 10 µM; GI50 (NCI-H226 lung): > 10 µM; TGI (NCI-H226 lung): > 10 µM; GI50 (OVCAR-5 ovarian): > 10 µM; TGI (OVCAR-5 ovarian): > 10 µM; GI50 (LOX IMVI melanoma): 3.15 µM; TGI (LOX IMVI melanoma): 8.56 µM; GI50 (SK-MEL-5 melanoma): 1530 nM; TGI (SK-MEL-5 melanoma): 3.34 µM; GI50 (A549 NSCLC): 5.18 µM; TGI (A549 NSCLC): > 10 µM; GI50 (OVCAR-3 ovarian): 3.18 µM; TGI (OVCAR-3 ovarian): > 10 µM; GI50 (ACHN renal): 4.84 µM; TGI (ACHN renal): > 10 µM; GI50 (HT29 colon): > 10 µM; TGI (HT29 colon): > 10 µM; GI50 (MCF7 breast): 2430 nM; TGI (MCF7 breast): > 10 µM; GI50 (DU-145 prostate): > 10 µM; TGI (DU-145 prostate): > 10 µM; GI50 (SNB-19 CNS): 6.89 µM; TGI (SNB-19 CNS): > 10 µM; GI50 (NCI-H522 lung): 2940 nM; TGI (NCI-H522 lung): > 10 µM; GI50 (U251 CNS): 9.45 µM; TGI (U251 CNS): > 10 µM; GI50 (CCRF-CEM leukemia): 2930 nM; TGI (CCRF-CEM leukemia): > 10 µM; GI50 (SN12C renal): 3.9 µM; TGI (SN12C renal): > 10 µM; GI50 (RXF 393 renal): 3.22 µM; TGI (RXF 393 renal): > 10 µM; GI50 (A498 renal): 3000 nM; TGI (A498 renal): 8.28 µM; GI50 (OVCAR-4 ovarian): 6.7 µM; TGI (OVCAR-4 ovarian): > 10 µM; GI50 (T-47D breast): 2620 nM; TGI (T-47D breast): > 10 µM; GI50 (IGROV1 ovarian): 5.53 µM; TGI (IGROV1 ovarian): > 10 µM; GI50 (SK-MEL-2 melanoma): 3.91 µM; TGI (SK-MEL-2 melanoma): > 10 µM; GI50 (SK-OV-3 ovarian): 5.66 µM; TGI (SK-OV-3 ovarian): > 10 µM; GI50 (CAKI-1 renal): 2040 nM; TGI (CAKI-1 renal): 8.3 µM; GI50 (RPMI-8226 leukemia): 3.39 µM; TGI (RPMI-8226 leukemia): > 10 µM; GI50 (NCI-H23 lung): 3.67 µM; TGI (NCI-H23 lung): > 10 µM; GI50 (COLO 205 colon): 3.52 µM; TGI (COLO 205 colon): > 10 µM; GI50 (SNB-75 CNS): 4.05 µM; TGI (SNB-75 CNS): > 10 µM; GI50 (HCT-15 colon): 4.99 µM; TGI (HCT-15 colon): > 10 µM; GI50 (UO-31 renal): 1860 nM; TGI (UO-31 renal): 9.66 µM; GI50 (HOP-62 NSCLC): 4.6 µM; TGI (HOP-62 NSCLC): > 10 µM; GI50 (MDA-MB-435): 3.67 µM; TGI (MDA-MB-435): > 10 µM; GI50 (KM12 colon): 7.97 µM; TGI (KM12 colon): > 10 µM; GI50 (SR leukemia): 4.64 µM; TGI (SR leukemia): > 10 µM; GI50 (SF-268 CNS): 6.56 µM; TGI (SF-268 CNS): > 10 µM; GI50 (K-562 leukemia): 2980 nM; TGI (K-562 leukemia): > 10 µM; GI50 (TK-10 renal): 4.83 µM; TGI (TK-10 renal): > 10 µM; GI50 (MDA-MB-231 breast): 5.79 µM; TGI (MDA-MB-231 breast): > 10 µM; GI50 (HCC-2998 colon): 6.17 µM; TGI (HCC-2998 colon): > 10 µM; GI50 (EKVX NSCLC): 9.33 µM; TGI (EKVX NSCLC): > 10 µM; GI50 (NCI/ADR-RES ovarian): 2760 nM; TGI (NCI/ADR-RES ovarian): 9.79 µM; GI50 (OVCAR-8 ovarian): 4.03 µM; TGI (OVCAR-8 ovarian): > 10 µM; GI50 (UACC-62 melanoma): 2420 nM; TGI (UACC-62 melanoma): 9.64 µM; GI50 (SW-620 colon): > 10 µM; TGI (SW-620 colon): > 10 µM; GI50 (HS 578T breast): 3.28 µM; TGI (HS 578T breast): > 10 µM; GI50 (PC-3 prostate): 5.87 µM; TGI (PC-3 prostate): > 10 µM; GI50 (MALME-3M melanoma): 4.72 µM; TGI (MALME-3M melanoma): > 10 µM; GI50 (HCT-116 colon): 2900 nM; TGI (HCT-116 colon): > 10 µM; GI50 (M14 melanoma): 3.44 µM; TGI (M14 melanoma): > 10 µM; GI50 (SF-295 CNS): > 10 µM; TGI (SF-295 CNS): > 10 µM
